Protection data for 1 compound are collected here from US11827693B2, “Composition and methods based on neutralizing antibodies delivered intranasally for enhanced therapeutic efficacy” (priority 2013, dated 2023).

For this test, the system named is H1 influenza virus A/Puerto Rico/8/1934 (PR8). Also on record: species or system BALB/c mice. To be noted: mouse, in vivo.

As for `CCOC(=O)C1=C[C@@H](OC(CC)CC)[C@H](NC(C)=O)[C@@H](N)C1` [Tamiflu], the protection entry is recorded as “completely ineffective in protection”.
